The source made the active and inactive calls. For most assays here, no stated cut-off is given here; in the data, actives have a measured IC50 and inactives only a lower limit.
Legend:
Assay type in all cases: functional
[1] = cells
[2] = target: T1, Heat shock factor protein 1 (Mus musculus, UniProt P38532); assay: decrease of HSF1-responsive luciferase luminescence – cell-based, NIH3T3, dose retest, confirmation (AID 2382);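 further: NIH3T3 fibroblasts with HSF1-driven luciferase reporter stressed by proteasome inhibitor MG132; luminescence from HSF1-driven luciferase expression after 8 hours of MG132 stress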
T1 sequence (P38532 whole entry): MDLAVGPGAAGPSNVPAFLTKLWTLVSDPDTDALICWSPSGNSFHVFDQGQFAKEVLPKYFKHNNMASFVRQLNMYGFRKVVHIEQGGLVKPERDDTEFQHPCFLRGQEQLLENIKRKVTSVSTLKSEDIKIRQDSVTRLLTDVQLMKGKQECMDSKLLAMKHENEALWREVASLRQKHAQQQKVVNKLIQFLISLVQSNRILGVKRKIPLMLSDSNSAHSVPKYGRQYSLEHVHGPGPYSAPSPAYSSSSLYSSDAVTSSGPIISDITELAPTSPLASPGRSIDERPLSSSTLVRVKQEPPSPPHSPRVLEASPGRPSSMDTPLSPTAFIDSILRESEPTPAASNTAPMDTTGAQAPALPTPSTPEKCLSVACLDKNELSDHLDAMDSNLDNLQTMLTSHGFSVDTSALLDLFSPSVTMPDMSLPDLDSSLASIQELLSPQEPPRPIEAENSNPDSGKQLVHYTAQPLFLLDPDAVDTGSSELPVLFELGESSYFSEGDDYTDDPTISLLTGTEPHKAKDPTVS

[3] = target: T2, Carboxy-terminal domain RNA polymerase II polypeptide A small phosphatase 1 (Homo sapiens, UniProt Q9GZU7); assay: CTDSP1 inhibitors, concentration-response, biochemical, absorbance readout, ultra-high-throughput screen actives (AID 540297)
T2 sequence (Q9GZU7 whole entry): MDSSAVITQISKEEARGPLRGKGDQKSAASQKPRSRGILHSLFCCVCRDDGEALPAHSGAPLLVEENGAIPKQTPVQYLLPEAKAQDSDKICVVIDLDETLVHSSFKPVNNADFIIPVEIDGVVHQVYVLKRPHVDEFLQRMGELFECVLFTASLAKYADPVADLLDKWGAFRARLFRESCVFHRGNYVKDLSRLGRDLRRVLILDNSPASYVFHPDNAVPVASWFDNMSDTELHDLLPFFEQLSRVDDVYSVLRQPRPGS

[4] = target: T3, Caspase-3 (Homo sapiens, UniProt P42574);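 further: Dose-response selectivity test against caspase-3 for candidate inhibitors of sentrin-specific proteases (SENPs)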
T3 sequence (P42574 whole entry): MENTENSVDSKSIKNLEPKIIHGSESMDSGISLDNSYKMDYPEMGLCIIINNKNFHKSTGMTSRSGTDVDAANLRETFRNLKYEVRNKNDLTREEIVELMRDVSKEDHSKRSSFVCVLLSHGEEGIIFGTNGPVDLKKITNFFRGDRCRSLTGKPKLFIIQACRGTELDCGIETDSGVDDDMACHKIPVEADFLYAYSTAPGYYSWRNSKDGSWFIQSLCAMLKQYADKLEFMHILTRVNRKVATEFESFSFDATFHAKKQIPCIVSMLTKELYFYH

[5] = target: T4, Sentrin-specific protease 8 (Homo sapiens, UniProt Q96LD8);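 further: luminescence read-out of SENP8 inhibition, dose-response confirmation following an ultra-high-throughput screen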
T4 sequence (Q96LD8 whole entry): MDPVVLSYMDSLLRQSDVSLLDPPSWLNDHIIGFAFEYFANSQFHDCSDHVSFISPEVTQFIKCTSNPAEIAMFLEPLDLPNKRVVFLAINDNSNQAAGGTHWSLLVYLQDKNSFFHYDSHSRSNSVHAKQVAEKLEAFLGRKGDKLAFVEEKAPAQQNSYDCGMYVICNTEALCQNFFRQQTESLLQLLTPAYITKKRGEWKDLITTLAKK

[6] = target: T5, Sentrin-specific protease 7 (Homo sapiens, UniProt Q9BQF6);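 further: Luminescence-based dose-response confirmation of ultra-high-throughput screening hits, measuring inhibition of SENP7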
T5 sequence (Q9BQF6 whole entry): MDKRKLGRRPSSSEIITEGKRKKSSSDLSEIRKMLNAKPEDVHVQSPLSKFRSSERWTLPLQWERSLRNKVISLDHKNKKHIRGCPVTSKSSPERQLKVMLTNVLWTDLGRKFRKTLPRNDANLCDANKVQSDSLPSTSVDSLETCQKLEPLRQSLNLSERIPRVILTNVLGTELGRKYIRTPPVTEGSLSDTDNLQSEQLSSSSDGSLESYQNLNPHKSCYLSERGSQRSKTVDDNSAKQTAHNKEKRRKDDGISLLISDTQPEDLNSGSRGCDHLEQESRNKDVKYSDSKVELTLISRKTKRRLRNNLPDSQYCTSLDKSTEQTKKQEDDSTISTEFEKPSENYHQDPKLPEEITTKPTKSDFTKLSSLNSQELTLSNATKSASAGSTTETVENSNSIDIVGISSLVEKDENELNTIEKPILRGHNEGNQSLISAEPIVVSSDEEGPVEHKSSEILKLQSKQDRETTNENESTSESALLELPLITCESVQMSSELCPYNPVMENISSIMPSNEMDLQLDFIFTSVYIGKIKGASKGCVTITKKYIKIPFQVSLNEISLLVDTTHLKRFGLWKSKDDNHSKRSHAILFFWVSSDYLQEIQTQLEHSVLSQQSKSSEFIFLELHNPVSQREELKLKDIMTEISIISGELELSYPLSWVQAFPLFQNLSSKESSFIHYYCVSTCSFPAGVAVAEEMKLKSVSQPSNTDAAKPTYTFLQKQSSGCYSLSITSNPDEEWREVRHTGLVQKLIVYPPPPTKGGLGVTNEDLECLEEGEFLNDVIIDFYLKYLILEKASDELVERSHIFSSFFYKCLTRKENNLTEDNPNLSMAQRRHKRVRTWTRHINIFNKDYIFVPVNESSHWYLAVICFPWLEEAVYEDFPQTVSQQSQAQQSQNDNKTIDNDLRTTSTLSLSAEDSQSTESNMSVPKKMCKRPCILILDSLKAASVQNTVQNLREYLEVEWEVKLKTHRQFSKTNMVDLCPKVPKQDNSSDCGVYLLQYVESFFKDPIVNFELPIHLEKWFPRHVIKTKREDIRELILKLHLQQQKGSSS

[7] = target: T6, Sentrin-specific protease 6 (Homo sapiens, UniProt Q9GZR1);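 further: Luminescence-based dose-response confirmatory assay of SENP6 inhibition, following up an ultra-high-throughput screen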
T6 sequence (Q9GZR1 whole entry): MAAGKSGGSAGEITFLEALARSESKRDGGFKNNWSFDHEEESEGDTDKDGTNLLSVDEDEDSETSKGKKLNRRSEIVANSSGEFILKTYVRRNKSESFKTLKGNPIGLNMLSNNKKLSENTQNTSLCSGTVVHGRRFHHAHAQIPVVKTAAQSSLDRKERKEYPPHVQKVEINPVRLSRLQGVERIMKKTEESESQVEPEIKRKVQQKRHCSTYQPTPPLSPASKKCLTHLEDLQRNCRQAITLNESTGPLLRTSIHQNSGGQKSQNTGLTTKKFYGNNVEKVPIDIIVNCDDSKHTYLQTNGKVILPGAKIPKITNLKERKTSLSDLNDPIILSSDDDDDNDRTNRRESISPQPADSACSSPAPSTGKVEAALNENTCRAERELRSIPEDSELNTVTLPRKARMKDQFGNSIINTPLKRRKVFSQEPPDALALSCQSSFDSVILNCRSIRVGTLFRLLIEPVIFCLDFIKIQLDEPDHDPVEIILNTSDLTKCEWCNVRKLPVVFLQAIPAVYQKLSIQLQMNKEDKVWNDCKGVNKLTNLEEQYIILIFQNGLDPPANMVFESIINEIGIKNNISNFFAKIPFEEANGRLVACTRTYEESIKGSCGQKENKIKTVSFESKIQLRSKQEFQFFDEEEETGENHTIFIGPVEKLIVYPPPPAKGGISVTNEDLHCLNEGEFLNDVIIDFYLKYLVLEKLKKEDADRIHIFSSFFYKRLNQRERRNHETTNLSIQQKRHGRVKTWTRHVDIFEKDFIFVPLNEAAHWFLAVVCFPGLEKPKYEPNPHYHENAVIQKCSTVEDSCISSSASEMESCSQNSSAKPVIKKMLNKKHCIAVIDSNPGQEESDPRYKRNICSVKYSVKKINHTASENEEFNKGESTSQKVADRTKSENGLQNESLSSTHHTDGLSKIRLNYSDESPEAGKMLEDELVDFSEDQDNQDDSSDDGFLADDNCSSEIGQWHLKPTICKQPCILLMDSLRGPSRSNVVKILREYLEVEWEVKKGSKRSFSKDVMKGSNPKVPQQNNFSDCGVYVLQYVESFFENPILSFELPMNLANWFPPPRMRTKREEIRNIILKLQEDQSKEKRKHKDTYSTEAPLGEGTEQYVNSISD

[8] = target: T1, Heat shock factor protein 1; assay: enhancement of HSF1-driven luciferase signal – cell-based, NIH3T3, luminescence, dose retest, confirmation (AID 435004);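 further: stress induced by proteasome inhibitor MG132 added 30 min after compound; luciferase reporter driven by HSF1 response element in NIH3T3 cells; actives raise luminescence as potentiators of the MG132 stress response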
[9] = target: T7, Corticotropin-releasing factor receptor 2/Corticotropin-releasing factor-binding protein (Homo sapiens, UniProt P24387+Q13324); assay: activators of CRF receptor 2 with binding protein – uHTS hits, confirmation (AID 602473); details: read-out: EC50_Mean
T7 sequence (Q13324 whole entry): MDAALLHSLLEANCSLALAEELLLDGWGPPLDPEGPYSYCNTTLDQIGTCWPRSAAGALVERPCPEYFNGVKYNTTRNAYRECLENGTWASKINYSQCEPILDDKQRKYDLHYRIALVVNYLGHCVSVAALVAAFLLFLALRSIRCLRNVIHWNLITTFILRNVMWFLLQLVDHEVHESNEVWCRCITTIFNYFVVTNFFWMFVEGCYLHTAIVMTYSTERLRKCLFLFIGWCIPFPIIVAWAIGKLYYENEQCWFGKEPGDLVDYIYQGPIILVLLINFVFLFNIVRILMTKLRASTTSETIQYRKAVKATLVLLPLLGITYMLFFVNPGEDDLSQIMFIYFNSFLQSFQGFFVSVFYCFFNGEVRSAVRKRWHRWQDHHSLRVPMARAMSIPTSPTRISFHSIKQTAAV
T7 sequence (P24387 whole entry): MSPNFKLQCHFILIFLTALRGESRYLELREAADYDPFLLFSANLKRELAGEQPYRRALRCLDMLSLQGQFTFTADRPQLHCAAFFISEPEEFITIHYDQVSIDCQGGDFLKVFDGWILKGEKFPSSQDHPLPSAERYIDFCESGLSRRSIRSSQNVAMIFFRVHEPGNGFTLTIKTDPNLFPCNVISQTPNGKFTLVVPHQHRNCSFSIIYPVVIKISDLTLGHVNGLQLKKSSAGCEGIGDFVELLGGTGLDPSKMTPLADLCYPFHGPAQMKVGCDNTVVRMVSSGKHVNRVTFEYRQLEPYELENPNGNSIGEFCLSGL

[10] = target: T7, Corticotropin-releasing factor receptor 2/Corticotropin-releasing factor-binding protein; assay: Dose Response confirmation of uHTS hits for small molecule antagonists of the CRF-binding protein and CRF-R2 receptor complex.; details: read-out: IC50_Mean

With `O=C(COC(=O)c1ccc(Br)o1)NCCCc1ccccc1` the IC50 [1] was 38.5 µM (active).
With `C#Cc1ccc([C@@H]2C=C(C(=O)OCC=C)O[C@H](OCc3ccc(CO)cc3)C2)cc1` the EC50 [2] was > 195 µM (not active).
With `Cc1sc2ncnc(SCC(=O)Nc3ncccc3O)c2c1C` the IC50 [3] was 5.35 µM (active).
In the case of `O=C(OCC(=O)N1CCCC1)c1cc(Br)ccc1Cl`, the IC50 [1] is reported as 22 µM (active).
For `CNC(=S)Nc1ccc(-c2nc3ccc(C)cc3s2)cc1`, the IC50 [4] was 7.31 µM (active), the IC50 [5] was 5.47 µM (active) and the IC50 [6] was 3.62 µM (active). The IC50 [7] was 5.18 µM (active).
In the case of `Cc1cccc(-c2noc(-c3c(C)noc3C)n2)c1`, the IC50 [4] is reported as 29.8 µM (active), the IC50 [5] is reported as > 100 µM (inactive) and the IC50 [6] is reported as 6.22 µM (active). The IC50 [7] was > 100 µM (inactive).
For `CCC1CCc2sc(C(=O)NNC(=O)c3ccncc3)cc2C1` (stereo not given), the IC50 [1] was 21.6 µM (active).
In the case of `Cc1csc(NC(=O)c2ccc(Br)s2)n1`, the IC50 [4] is reported as 14 µM (active), the IC50 [5] is reported as 27.4 µM (active) and the IC50 [6] is reported as 7.6 µM (active). The IC50 [7] was 24.9 µM (active).
In the case of `Cc1cccc(NC(=O)CN2C(=O)S/C(=C\c3ccc(-c4cccc(C(=O)O)c4C)o3)C2=O)c1`, the IC50 [3] is reported as 3.95 µM (active).
With `CSc1nc2ccc(NC(=O)C3CC(=O)N(Cc4ccccc4)C3)cc2s1` (stereo not given) the IC50 [1] was 11.4 µM (active).
For `Cc1ccc(-c2c(NCCc3ccccc3)c(=O)c2=O)cc1`, the IC50 [3] was 9.66 µM (active).
In the case of `O=C(CCS(=O)(=O)c1ccc(Br)cc1)NCCc1ccccc1`, the IC50 [3] is reported as 26.3 µM (active).
With `Cc1ccc(C(=O)OCC(=O)c2ccc(Cl)s2)s1` the IC50 [4] was 18.9 µM (active), the IC50 [5] was 29.7 µM (active) and the IC50 [6] was 7.61 µM (active). For the same compound, the IC50 [7] was 24.6 µM (active) and the EC50 [8] was 20.3 µM (active).
With `Cn1c(C(=O)NN)cc2cc(OCc3ccccc3)ccc21` the EC50 [2] was > 195 µM (not active).
With `Cc1cccc(N2C(N)=NC(N)=NC23CCCCC3)c1` the EC50 [9] was > 53 µM (inactive) and the IC50 [10] was > 47.1 µM (inactive).
For `Cc1cc(C)cc(NC(=O)Cn2nnc(C(=O)NCc3ccc(F)cc3)c2N)c1`, the EC50 [9] was > 53 µM (inactive) and the IC50 [10] was > 47.1 µM (inactive).
With `CCCNC(=O)C1CC(=O)N(c2ccc(OCC)cc2)C1` (stereo not given) the EC50 [9] was > 53 µM (inactive) and the IC50 [10] was > 47.1 µM (inactive).
In the case of `CCO[C@@H]1OC(C(N)=O)=C[C@H](C(C)(C)C)[C@H]1CCCO`, the EC50 [9] is reported as > 53 µM (inactive) and the IC50 [10] is reported as > 47.1 µM (inactive).
In the case of `COc1cc(C(=O)O)c2ccccc2n1`, the EC50 [9] is reported as > 53 µM (inactive) and the IC50 [10] is reported as < 0.368 µM (active).
For `CC[C@]12c3[nH]c4ccc(OC)cc4c3CCN1C(=O)C(CC(=O)NCCCOC)C[C@@H]2C(=O)N1CCN(C(=O)c2ccco2)CC1` (stereo not given in full), the EC50 [9] was > 53 µM (inactive) and the IC50 [10] was > 47.1 µM (inactive).
For `O=C(N/N=C/C=C/c1ccco1)c1ccncc1`, the IC50 [1] was 1.31 µM (active).
With `Cc1ccc(Cn2ccs/c2=N\C(=O)COC(=O)c2ccc(O)cc2O)cc1` the IC50 [4] was 37.1 µM (active), the IC50 [5] was > 100 µM (inactive) and the IC50 [6] was 7.79 µM (active). The IC50 [7] was 10.6 µM (active).
With `COc1ccc(/C=N/NC(=O)CN(C)S(=O)(=O)c2ccc(NC(C)=O)cc2)cc1` the EC50 [2] was > 195 µM (not active).
